The source of these data is PubChem BioAssay (NCI).

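Values below derive from 48-hour exposures of cells grown in 96-well plates, with endpoints linearly interpolated between the two concentrations bracketing the appropriate inhibition level. Abbreviation: GI50, concentration required for 50% inhibition of growth. TGI: concentration producing complete growth inhibition.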

Common to all, as to test: inhibition of tumour cell growth, NCI panel, 48 h
Experiment [1] relates to HCT-116 colon.
Experiment [2] relates to OVCAR-5 ovarian.
The subject of experiment [3] is HT29 colon.
In experiment [4] the test system is NCI-H522 lung.
For experiment [5], the system named is SK-OV-3 ovarian.
For experiment [6], the system named is UO-31 renal.
In experiment [7] the test system is LOX IMVI melanoma.
Experiment [8] concerns A498 renal.
In experiment [9] the test system is SK-MEL-2 melanoma.

Turning to `Oc1c(C(Nc2cccc3ccccc23)c2ccccc2)ccc2cccnc12` (stereo not drawn), the GI50 in [1] was 2.86 µM; in [2] it was 7.32 µM; in experiment [3] it was 5.57 µM; in [4] it was 2.74 µM; in [5], 5.9 µM; in experiment [6], 1.62 µM. The GI50 in experiment [7] was 1.92 µM; in experiment [8], 3.27 µM; in [9] it was 6.58 µM. Also, the TGI in [1] was 17.9 µM; in [2], above 100 µM; in experiment [3], above 100 µM; in [4], 7.82 µM; in experiment [5], above 100 µM; in experiment [6], 23 µM. The TGI in experiment [7] is 13.7 µM; in experiment [8] it was 23.9 µM; in [9], above 100 µM.

`COc1cc2ccccc2c2cc([N+](=O)[O-])oc12`: the TGI is 10.3 µM in experiment [1]; 9.93 µM in [2]; 21.9 µM in experiment [3]; 1.35 µM in experiment [4]; above 71.7 µM in [5]; 3.1 µM in experiment [6]. For the same compound, the TGI in experiment [7] came to 3.93 µM; in experiment [8], 0.342 µM; in experiment [9], 0.452 µM.

As for `N#CNC(N)=NCCO`, the TGI in [1], in experiment [2], in experiment [3], in experiment [4], in experiment [5] and in [6] was above 100 µM throughout. Also, the TGI in [8] and in experiment [9] was above 100 µM throughout.

Turning to `[C-]#[O+].[Cl][Sn]([Cl])[Cl].[Cl][Sn]([Cl])[Cl].[Pt].c1ccc([PH+](c2ccccc2)c2ccccc2)cc1.c1ccc([PH+](c2ccccc2)c2ccccc2)cc1`, the GI50 in [1] was 43.2 µM; in experiment [2] it was 88 µM; in experiment [3], above 100 µM; in [4], 23.3 µM; in experiment [5], 48.2 µM; in [6] it was above 100 µM. The GI50 is 14.2 µM in [7], 18.8 µM in experiment [8] and 34 µM in experiment [9]. Also, the TGI in experiment [1] was above 100 µM; in experiment [2], above 100 µM; in experiment [3] it was above 100 µM; in [4], 56.7 µM; in experiment [5], above 100 µM; in experiment [6], above 100 µM. Besides, the values for the TGI in experiment [7], in experiment [8] and in experiment [9] were 41 µM, 50.1 µM and above 100 µM, respectively.

In the case of `O=C1c2ccccc2NC(c2cc(Cl)cc(Cl)c2O)N1CCc1ccccn1` (stereo not drawn), the TGI in [1], in experiment [2], in experiment [3], in experiment [4], in experiment [5] and in [6] was above 100 µM in each case. Moreover, the TGI in [7], in [8] and in experiment [9] was above 100 µM in each case.

Take `CN(CCC#N)c1ccc(/C=C(\C#N)c2cccc(C(F)(F)F)c2)cc1`: the GI50 is 3.21 µM in experiment [1]; 6.73 µM in [2]; 2.58 µM in experiment [3]; 36.7 µM in experiment [5]; 2.27 µM in experiment [6]; 3.75 µM in experiment [7]. The values for the GI50 in experiment [8] and in [9] were 1.44 µM and 2.57 µM, respectively. Moreover, the TGI in experiment [1] is above 100 µM; in [2] it was above 100 µM; in [3], 11.3 µM; in experiment [5], above 100 µM; in [6] it was above 100 µM; in experiment [7], above 100 µM. In addition, the TGI stood at 8.89 µM in [8] and 8.11 µM in [9].

Turning to `O=C(CCN1CCOCC1)Nc1ccc(F)cc1F`, the TGI in experiment [1], in experiment [2], in experiment [3], in experiment [4], in [5] and in [6] was above 100 µM throughout. The TGI in experiment [7], in experiment [8] and in experiment [9] was above 100 µM each time.

For the compound `CN(C)c1ccc2c(c1)CN1C(=O)c3ccccc3C1=N2`, the GI50 in experiment [1] is above 100 µM; in experiment [2], above 100 µM; in experiment [3], above 100 µM; in experiment [4], 36.6 µM; in [5], above 100 µM; in experiment [6], above 100 µM. Besides, the GI50 in experiment [7] and in [9] was above 100 µM throughout. Also, the TGI in [1], in experiment [2], in experiment [3], in experiment [4], in [5] and in experiment [6] was above 100 µM in each case. Also, the TGI in experiment [7] and in experiment [9] was above 100 µM in each case.
